Test results as given in patent US20240208961A1, “EIF4E INHIBITORS AND USES THEREOF” (PIC Therapeutics, Inc., priority 2022, published 2024).

Test system: ZR-75-1 tumor
Assay: ZR-75-1 subQ CDX model
Format: in vivo
Conditions: female BALB/c nude mice, 10 mg/kg, PO, QD, FIG. 14
Method: Female BALB/c nude mice were inoculated with estrogen tablets (0.36 mg/pellet, 60 days to release) 48 hours before cell inoculation. The xenograft model was established by implantation of […] of ZR-75-1 tumor cell suspension (5×10^6 cells/mouse, with 50% Matrigel) subcutaneously into the right subaxillary of female BALB/c nude mice aged 6-8 weeks. When the average tumor volume reached 153.10 mm^3, the tumor-bearing mice were randomized into treatment groups. The groups were treated as follows: Group 1: vehicle, PO, QW; Group 2: Tamoxifen 10 mg/kg, PO, QD; Group 3: Compound I-11 50 mg/kg, PO, QW.
Cell culture: The ZR-75-1 (breast, ductal carcinoma) cell was purchased from (ATCC® CRL-1500™). The base medium for this cell line ATCC-formulated RPMI-1640 Medium. To make the complete growth medium, the base medium was supplemented with 10% heat inactivated FBS and 1% PS, maintained at 37° C. in an atmosphere containing 5% CO2 in air. The tumor cells were routinely subcultured at a ratio of 1:1.5 to 1:3 every 3-6 days. Cell concentration at harvest time was 5.39×10^7 cells/mL and cell viability was 94.3% before inoculation.
Tumor inoculation: BALB/c nude mice were used in this study. Each mouse was inoculated with estrogen tablets 48 hours before cell inoculation (0.3 mg/pellet, 60 days to release). […]

## CC/C(=C(\c1ccccc1)c1ccc(OCCN(C)C)cc1)c1ccccc1 [Tamoxifen, reference compound]
  tumor size growth: reduced tumor size growth
